The target in test [1] is T1, 5-hydroxytryptamine receptor 1A (Mus musculus, UniProt Q64264).
T1 sequence (Q64264 whole entry): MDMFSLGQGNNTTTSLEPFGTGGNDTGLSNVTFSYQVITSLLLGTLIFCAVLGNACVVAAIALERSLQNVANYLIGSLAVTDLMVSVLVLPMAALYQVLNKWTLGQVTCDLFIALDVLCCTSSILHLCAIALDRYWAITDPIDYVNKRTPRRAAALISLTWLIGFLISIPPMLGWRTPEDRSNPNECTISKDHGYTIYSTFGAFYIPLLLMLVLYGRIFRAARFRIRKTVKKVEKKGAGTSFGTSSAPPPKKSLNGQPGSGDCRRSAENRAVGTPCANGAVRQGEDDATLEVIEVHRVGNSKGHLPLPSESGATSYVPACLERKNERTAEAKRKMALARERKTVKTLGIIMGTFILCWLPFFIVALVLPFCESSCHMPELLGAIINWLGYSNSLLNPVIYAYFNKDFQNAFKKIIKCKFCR
In words: Compound was tested for binding affinity to 5-hydroxytryptamine 1A receptor using [3H]8-OH-DPAT as a radioligand.

The test system of test [2] is Mus musculus. In words: Effective dose required for hypothermia activity after subcutaneous administration at 1.9 degree F temp in mouse. The note with it: sc. The class given is functional.
Test [3] has as its system Mus musculus. In words: Effective dose required for hypothermia activity after subcutaneous administration at 6.4 degree F temp in mouse. As to conditions: sc. The test is classed as functional.
Test [4] deals with Mus musculus. In words: Effective dose required for hypothermia activity after >120 min of oral administration at 4.0 degree F temp in mouse. The class given is functional. The note with it: 2 h.
Test [5] has as its system Mus musculus. In words: Effective dose required for hypothermia activity after 20 min of oral administration at 2.9 degree F temp in mouse. The test is classed as functional.
For test [6], the system named is Mus musculus. In words: Effective dose required for hypothermia activity after subcutaneous administration at 3.8 degree F temp in mouse. The class given is functional. As to conditions: sc.

Molecules are shown by their SMILES.

Broadly, the Ki is the equilibrium dissociation constant of an inhibitor or competing ligand from its target. A word on the ED50: it is the midpoint of the dose-response relation. A high value points to a need for a large dose. `O=C1c2ccccc2S(=O)(=O)N1C[C@@H]1C[C@@H]1CN1CCN(c2ncccn2)CC1` showed an inhibition constant (Ki) in test [1] of 43.7 nM. The median effective dose (ED50) in the test with Mus musculus [2] was > 0.055 µmol/kg.

With `O=C1c2ccccc2S(=O)(=O)N1C[C@H]1C[C@@H]1CN1CCN(c2ncccn2)CC1`, affinity in test [1] was put at a Ki of 8.7 nM. Also, the median effective dose (ED50) with Mus musculus [3] was 0.0032 µmol/kg; with Mus musculus [4] it was 0.19 µmol/kg.

On to `O=C1c2ccccc2S(=O)(=O)N1CCCCN1CCN(c2ncccn2)CC1` [IPSAPIRONE], for which the ED50 in the test with Mus musculus [5] came to 0.23 µmol/kg; in the test on Mus musculus [6], 0.00527 µmol/kg. This compound gave an inhibitory constant (Ki) in test [1] of 12.1 nM.

The values above are taken from ChEMBL document CHEMBL1126388, “Synthesis of metabolically stable arylpiperazine 5-HT1A receptor agonists” (Bioorg Med Chem Lett, 1992).
